Structures are written as SMILES.

Among the data in patent US7449459B2, “Inhibitors of soluble adenylate cyclase” (Bayer Schering Pharma AG, priority 2006, dated 2008) are IC50 values, retold here.

For this assay, the target named is soluble, sperm-specific adenylate cyclase (sAC) (Homo sapiens, UniProt Q96PN6). The experiment in a line: sAC-Assay (HTRF cAMP detection). Format: biochemical. The following applies: inhibition of the soluble adenylate cyclase. From the text: In a suitable buffer system, the soluble, sperm-specific adenylate cyclase catalyzes the reaction of adenosine triphosphate (ATP) to cyclic adenosine monophosphate (cAMP) and pyrophosphate. Free cAMP that is generated in this way is then used in a competitive detection process, in which the binding of a europium kryptate (Eu[K])-labeled anti-cAMP antibody (anti cAMP-Eu[K]-AK) to a cAMP-molecule-labeled, modified allophycocyanine-1 molecule (cAMP-XL665) is prevented. In the absence of exogenic cAMP, after excitation at 335 nm, it results in a fluorescence resonance energy transfer (FRET) between the anti cAMP-Eu[K]-AK (FRET-donor) and the cAMP-XL665 molecule (FRET-acceptor). This process is quantified at different times (time-resolved) based on the emission of FRET-acceptor XL665 (665 nm and 620 nm). A signal drop (measured as a wave ratio; calculation formula: [(E665 nm/E620 nm)×10000]) can be attributed to the presence of cAMP and thus to the activity of sAC.
soluble, sperm-specific adenylate cyclase (sAC), sequence (Q96PN6 whole entry): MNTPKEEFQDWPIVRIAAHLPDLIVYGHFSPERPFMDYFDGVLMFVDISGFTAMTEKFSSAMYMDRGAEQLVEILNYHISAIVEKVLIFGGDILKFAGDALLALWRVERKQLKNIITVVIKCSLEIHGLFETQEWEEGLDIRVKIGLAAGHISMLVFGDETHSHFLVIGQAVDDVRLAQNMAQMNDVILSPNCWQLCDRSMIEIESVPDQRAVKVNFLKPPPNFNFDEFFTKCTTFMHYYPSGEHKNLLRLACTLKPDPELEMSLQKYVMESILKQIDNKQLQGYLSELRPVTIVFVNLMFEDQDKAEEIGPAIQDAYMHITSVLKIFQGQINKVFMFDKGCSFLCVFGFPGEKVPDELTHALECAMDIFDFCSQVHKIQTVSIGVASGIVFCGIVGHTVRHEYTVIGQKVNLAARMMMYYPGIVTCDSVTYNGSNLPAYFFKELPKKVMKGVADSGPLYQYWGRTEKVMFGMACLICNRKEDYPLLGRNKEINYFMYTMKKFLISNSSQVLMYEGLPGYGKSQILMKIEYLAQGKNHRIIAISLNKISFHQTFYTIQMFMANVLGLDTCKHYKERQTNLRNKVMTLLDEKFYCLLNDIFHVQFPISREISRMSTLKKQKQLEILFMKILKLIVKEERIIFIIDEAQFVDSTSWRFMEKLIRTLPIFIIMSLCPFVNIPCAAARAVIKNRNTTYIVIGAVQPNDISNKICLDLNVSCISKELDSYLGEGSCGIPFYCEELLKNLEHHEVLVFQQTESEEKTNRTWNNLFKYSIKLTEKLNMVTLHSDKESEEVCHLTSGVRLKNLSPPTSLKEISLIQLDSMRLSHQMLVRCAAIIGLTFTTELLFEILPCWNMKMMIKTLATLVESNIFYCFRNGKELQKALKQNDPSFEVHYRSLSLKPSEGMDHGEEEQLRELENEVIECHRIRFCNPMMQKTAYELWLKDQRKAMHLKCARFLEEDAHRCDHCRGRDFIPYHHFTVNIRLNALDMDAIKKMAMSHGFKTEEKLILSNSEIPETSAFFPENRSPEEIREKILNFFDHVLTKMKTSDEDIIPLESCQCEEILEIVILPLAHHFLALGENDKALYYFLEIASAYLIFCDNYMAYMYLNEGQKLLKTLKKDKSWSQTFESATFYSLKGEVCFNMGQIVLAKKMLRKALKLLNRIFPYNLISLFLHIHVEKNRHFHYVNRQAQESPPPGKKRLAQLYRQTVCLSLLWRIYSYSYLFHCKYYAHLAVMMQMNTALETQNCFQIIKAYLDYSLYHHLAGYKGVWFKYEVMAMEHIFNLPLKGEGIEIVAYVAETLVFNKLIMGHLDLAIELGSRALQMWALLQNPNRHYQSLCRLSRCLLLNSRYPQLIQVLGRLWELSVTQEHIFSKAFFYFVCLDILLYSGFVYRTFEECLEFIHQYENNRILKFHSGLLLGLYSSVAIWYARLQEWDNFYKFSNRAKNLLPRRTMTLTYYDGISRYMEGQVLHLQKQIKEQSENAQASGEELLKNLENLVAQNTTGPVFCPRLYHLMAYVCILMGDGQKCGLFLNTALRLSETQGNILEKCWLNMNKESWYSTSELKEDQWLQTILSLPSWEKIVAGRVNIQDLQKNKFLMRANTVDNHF
First, 1.5 μl of the test substance (in 30% DMSO), only 30% DMSO in the solvent controls, is introduced per recess in a 384-hole test plate (polystyrene; 384, NV). […]
After an additional incubation of 90 minutes at room temperature, the HTRF result is measured either on the Packard Discovery or with the RubiStar HTRF measuring device (Delay: 50 μs; Integration time: 400 μs).

Regarding `CC(C)(C)c1ccc(S(=O)(=O)Nc2ccc3[nH]c(/C=C/C(=O)NCCN4CCOCC4)c(-c4ccccc4)c3c2)cc1`, the IC50 is 3.5 µM.

On to `CC(O)CNC(=O)/C=C/c1[nH]c2ccc(NS(=O)(=O)c3ccc(C(C)(C)C)cc3)cc2c1-c1ccccc1` (racemic) [(±)-(E)-3-[5-(4-tert-Butyl-phenylsulfonylamino)-3-phenyl-1H-indol-2-yl]-N-(2-hydroxy-propyl)-acrylic acid amide], for which the midpoint of inhibition, the IC50, lay at 4.4 µM. This IC50 and that of the compound before are within 1.5-fold of each other.
